Values belong to the compound of their own block, whether it stands above or below them.
Legend:
[1] = molecular target: Steroidogenic factor 1 (Homo sapiens) (UniProt Q13285); experiment: Selectivity interaction (Reporter gene assay) EUB0000190b NR5A1; set-up: recommended concentration 1 uM
[2] = molecular target: Nuclear receptor subfamily 2 group E member 1 (Homo sapiens) (UniProt Q9Y466); experiment: Selectivity interaction (Reporter gene assay) EUB0000190b NR2E1; set-up: recommended concentration 1 uM
Nuclear receptor subfamily 2 group E member 1 (Homo sapiens), sequence (Q9Y466 whole entry): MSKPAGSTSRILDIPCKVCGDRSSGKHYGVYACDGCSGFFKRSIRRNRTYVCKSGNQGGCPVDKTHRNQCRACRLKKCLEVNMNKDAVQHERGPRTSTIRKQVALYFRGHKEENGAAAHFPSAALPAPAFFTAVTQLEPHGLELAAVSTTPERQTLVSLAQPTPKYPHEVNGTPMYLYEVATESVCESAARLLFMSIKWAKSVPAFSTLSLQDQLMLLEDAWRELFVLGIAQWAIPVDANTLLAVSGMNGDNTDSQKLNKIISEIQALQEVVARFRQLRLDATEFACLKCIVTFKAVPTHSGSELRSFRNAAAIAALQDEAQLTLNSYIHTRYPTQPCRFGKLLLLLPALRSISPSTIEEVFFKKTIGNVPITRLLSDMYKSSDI

[3] = molecular target: T1, Retinoic acid receptor RXR-alpha (Homo sapiens) (UniProt P19793); experiment: Selectivity interaction (Reporter gene assay) EUB0000190b RXRA; set-up: recommended concentration 1 uM; conditions: reference bexarotene 1 uM, Selectivity number of off-targets 0.0, Selectivity number of targets 1.0, Source Knowledge inhouse
T1 sequence (whole entry): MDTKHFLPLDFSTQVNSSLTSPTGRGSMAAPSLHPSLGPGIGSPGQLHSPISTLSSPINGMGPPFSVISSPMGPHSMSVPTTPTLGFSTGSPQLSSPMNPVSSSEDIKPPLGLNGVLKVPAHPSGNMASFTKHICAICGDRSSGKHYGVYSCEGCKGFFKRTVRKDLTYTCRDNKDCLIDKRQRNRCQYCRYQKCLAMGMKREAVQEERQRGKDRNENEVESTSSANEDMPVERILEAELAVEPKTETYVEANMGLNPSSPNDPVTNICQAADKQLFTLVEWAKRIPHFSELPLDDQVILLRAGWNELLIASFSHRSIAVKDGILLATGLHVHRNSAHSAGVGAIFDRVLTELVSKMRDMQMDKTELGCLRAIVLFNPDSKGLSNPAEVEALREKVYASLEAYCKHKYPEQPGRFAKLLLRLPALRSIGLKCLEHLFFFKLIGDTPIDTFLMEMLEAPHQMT

[4] = molecular target: T2, Nuclear receptor subfamily 2 group C member 1 (Homo sapiens) (UniProt P13056); experiment: Selectivity interaction (Reporter gene assay) EUB0000190b NR2C1; set-up: recommended concentration 1 uM
T2 sequence (whole entry): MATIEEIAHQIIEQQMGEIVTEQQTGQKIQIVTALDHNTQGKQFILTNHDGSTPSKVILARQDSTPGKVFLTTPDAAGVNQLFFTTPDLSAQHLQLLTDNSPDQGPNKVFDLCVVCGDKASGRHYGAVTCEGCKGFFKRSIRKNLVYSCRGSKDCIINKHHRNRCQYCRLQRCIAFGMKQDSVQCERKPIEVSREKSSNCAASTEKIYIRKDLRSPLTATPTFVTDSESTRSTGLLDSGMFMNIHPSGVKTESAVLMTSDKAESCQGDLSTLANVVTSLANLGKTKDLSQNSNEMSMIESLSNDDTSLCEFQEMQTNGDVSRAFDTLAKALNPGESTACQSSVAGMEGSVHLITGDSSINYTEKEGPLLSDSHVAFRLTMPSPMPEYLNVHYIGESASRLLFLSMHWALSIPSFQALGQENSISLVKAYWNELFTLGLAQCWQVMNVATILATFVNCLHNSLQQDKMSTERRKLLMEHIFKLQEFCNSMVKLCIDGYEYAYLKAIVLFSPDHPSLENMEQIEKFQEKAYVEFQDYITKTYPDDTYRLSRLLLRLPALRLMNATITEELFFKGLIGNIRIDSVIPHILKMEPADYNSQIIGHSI

[5] = molecular target: T3, Hepatocyte nuclear factor 4-alpha (Homo sapiens) (UniProt P41235); experiment: Selectivity interaction (Reporter gene assay) EUB0000190b HNF4A; set-up: recommended concentration 1 uM
T3 sequence (whole entry): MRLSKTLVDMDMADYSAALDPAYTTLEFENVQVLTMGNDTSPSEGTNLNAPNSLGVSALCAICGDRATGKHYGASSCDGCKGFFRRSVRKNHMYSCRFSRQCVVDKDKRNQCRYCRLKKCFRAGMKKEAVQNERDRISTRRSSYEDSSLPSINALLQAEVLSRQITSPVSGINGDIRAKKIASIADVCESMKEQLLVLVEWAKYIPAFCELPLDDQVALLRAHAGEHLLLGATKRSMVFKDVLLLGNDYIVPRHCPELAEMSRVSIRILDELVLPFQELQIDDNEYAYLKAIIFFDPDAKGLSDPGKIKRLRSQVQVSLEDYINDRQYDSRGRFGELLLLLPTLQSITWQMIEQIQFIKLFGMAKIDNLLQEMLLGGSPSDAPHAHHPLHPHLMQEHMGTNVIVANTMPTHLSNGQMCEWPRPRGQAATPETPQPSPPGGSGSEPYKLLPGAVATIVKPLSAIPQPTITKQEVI

[6] = molecular target: Nuclear receptor subfamily 4immunitygroup A member 1 (Homo sapiens) (UniProt P22736); experiment: Selectivity interaction (Reporter gene assay) EUB0000190b NR4A1; set-up: recommended concentration 1 uM
Nuclear receptor subfamily 4immunitygroup A member 1 (Homo sapiens), sequence (P22736 whole entry): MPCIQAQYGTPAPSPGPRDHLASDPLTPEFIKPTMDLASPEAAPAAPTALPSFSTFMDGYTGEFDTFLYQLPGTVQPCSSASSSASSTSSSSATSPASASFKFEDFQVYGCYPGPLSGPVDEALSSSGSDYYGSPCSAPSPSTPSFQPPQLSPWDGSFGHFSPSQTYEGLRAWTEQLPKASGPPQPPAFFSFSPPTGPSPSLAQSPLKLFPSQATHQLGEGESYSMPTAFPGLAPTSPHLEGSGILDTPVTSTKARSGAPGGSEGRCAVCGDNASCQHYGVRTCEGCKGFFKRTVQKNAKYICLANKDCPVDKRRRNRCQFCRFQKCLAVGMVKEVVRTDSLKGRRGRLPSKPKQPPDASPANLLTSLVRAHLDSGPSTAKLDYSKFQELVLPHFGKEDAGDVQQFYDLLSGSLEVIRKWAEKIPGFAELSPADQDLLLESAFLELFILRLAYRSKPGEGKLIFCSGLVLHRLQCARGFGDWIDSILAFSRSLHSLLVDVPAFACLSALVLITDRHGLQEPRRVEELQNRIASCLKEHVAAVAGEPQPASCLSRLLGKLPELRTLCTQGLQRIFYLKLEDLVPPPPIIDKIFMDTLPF

[7] = molecular target: T4, Alpha trans-inducing protein (Human alphaherpesvirus 1) (UniProt A0A5J6DW59); experiment: Selectivity interaction (Reporter gene assay) EUB0000190b UL48; set-up: recommended concentration 1 uM
T4 sequence (A0A5J6DW59 as listed by the source): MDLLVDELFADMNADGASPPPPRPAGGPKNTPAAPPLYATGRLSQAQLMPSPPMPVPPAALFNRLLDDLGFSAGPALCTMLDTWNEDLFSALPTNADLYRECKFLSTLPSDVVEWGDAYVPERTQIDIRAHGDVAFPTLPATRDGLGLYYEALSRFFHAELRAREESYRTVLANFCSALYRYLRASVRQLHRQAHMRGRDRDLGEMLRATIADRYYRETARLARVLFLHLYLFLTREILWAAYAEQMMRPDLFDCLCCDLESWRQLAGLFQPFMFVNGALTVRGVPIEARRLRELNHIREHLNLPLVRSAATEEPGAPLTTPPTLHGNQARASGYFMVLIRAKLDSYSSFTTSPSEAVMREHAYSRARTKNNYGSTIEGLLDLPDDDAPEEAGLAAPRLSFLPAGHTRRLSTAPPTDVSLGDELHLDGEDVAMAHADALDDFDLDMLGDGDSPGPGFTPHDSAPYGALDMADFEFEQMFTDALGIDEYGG

[8] = molecular target: Nuclear receptor subfamily 2 group E member 1 (Homo sapiens) (UniProt Q9Y466)
[9] = molecular target: T4, Alpha trans-inducing protein (Human alphaherpesvirus 1); experiment: Selectivity interaction (Reporter gene assay) EUB0000040b UL48; set-up: recommended concentration 1 uM
[10] = molecular target: Nuclear receptor subfamily 4immunitygroup A member 1 (Homo sapiens) (UniProt P22736)
[11] = molecular target: Nuclear receptor subfamily 2 group E member 1 (Homo sapiens) (UniProt Q9Y466); experiment: Selectivity interaction (Reporter gene assay) EUB0000188b NR2E1; set-up: recommended concentration 1 uM
[12] = molecular target: T1, Retinoic acid receptor RXR-alpha (Homo sapiens); experiment: Selectivity interaction (Reporter gene assay) EUB0000188b RXRA; set-up: recommended concentration 1 uM; conditions: reference bexarotene 1 uM, Selectivity number of off-targets 0.0, Selectivity number of targets 1.0, Source Knowledge inhouse
[13] = molecular target: Nuclear receptor subfamily 4immunitygroup A member 1 (Homo sapiens) (UniProt P22736); experiment: Selectivity interaction (Reporter gene assay) EUB0000188b NR4A1; set-up: recommended concentration 1 uM
[14] = molecular target: Steroidogenic factor 1 (Homo sapiens) (UniProt Q13285); experiment: Selectivity interaction (Reporter gene assay) EUB0000188b NR5A1; set-up: recommended concentration 1 uM
[15] = molecular target: T4, Alpha trans-inducing protein (Human alphaherpesvirus 1); experiment: Selectivity interaction (Reporter gene assay) EUB0000188b UL48; set-up: recommended concentration 1 uM
[16] = molecular target: T2, Nuclear receptor subfamily 2 group C member 1 (Homo sapiens); experiment: Selectivity interaction (Reporter gene assay) EUB0000188b NR2C1; set-up: recommended concentration 1 uM
[17] = molecular target: T3, Hepatocyte nuclear factor 4-alpha (Homo sapiens); experiment: Selectivity interaction (Reporter gene assay) EUB0000188b HNF4A; set-up: recommended concentration 1 uM
[18] = molecular target: Histamine H3 receptor (Homo sapiens) (UniProt Q9Y5N1); experiment: Selectivity interaction (Custom Panel of enzymes and receptors (Eurofins)) EUB0000234b HRH3; set-up: recommended concentration 1 uM; conditions: at 10 µM
Histamine H3 receptor (Homo sapiens), sequence (Q9Y5N1 whole entry): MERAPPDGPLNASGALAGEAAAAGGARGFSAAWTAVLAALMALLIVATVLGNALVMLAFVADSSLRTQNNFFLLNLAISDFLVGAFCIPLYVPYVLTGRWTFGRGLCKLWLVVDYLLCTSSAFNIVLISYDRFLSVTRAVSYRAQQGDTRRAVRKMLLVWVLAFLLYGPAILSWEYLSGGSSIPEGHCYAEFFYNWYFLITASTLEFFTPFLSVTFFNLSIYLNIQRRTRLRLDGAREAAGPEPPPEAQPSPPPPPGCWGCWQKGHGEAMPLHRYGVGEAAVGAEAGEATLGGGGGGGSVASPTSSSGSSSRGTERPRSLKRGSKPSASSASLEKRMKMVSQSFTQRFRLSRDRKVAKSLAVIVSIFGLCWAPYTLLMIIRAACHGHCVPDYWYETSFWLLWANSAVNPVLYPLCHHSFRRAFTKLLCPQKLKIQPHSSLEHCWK

[19] = molecular target: Muscarinic acetylcholine receptor M2 (Homo sapiens) (UniProt P08172); experiment: Selectivity interaction (Custom Panel of enzymes and receptors (Eurofins)) EUB0000234b CHRM2; set-up: recommended concentration 1 uM; conditions: at 10 µM
Muscarinic acetylcholine receptor M2 (Homo sapiens), sequence (P08172 whole entry): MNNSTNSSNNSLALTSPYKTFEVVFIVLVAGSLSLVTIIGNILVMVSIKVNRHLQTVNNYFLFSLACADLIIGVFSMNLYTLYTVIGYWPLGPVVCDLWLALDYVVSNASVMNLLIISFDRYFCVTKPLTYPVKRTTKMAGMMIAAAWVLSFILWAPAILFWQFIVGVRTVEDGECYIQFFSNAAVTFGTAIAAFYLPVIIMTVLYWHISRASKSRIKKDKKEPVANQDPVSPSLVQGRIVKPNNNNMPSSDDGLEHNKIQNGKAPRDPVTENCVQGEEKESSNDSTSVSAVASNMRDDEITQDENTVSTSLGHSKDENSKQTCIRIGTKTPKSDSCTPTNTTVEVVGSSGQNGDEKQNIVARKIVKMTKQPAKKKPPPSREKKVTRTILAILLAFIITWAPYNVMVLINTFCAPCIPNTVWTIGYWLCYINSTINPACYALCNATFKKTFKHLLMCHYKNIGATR

Mu-type opioid receptor = Mu-type opioid receptor (Homo sapiens, UniProt P35372); experiment: Selectivity interaction (Custom Panel of enzymes and receptors (Eurofins)) EUB0000234b OPRM1; set-up: recommended concentration 1 uM; conditions: at 10 µM
Mu-type opioid receptor, sequence (P35372 whole entry): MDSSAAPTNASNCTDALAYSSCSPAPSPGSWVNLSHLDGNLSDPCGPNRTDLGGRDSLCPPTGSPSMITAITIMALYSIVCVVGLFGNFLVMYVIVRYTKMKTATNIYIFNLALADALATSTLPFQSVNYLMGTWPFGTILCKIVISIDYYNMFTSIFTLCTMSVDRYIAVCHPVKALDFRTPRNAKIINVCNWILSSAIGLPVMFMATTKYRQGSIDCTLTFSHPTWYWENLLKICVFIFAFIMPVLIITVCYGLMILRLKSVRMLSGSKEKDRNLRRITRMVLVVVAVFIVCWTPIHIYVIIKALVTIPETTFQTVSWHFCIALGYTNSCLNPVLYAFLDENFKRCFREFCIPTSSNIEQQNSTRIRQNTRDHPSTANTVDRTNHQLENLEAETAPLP

[20] = molecular target: Alpha-2B adrenergic receptor (Homo sapiens) (UniProt P18089); experiment: Selectivity interaction (Custom Panel of enzymes and receptors (Eurofins)) EUB0000234b ADRA2B; set-up: recommended concentration 1 uM; conditions: at 10 µM
Alpha-2B adrenergic receptor (Homo sapiens), sequence (P18089 whole entry): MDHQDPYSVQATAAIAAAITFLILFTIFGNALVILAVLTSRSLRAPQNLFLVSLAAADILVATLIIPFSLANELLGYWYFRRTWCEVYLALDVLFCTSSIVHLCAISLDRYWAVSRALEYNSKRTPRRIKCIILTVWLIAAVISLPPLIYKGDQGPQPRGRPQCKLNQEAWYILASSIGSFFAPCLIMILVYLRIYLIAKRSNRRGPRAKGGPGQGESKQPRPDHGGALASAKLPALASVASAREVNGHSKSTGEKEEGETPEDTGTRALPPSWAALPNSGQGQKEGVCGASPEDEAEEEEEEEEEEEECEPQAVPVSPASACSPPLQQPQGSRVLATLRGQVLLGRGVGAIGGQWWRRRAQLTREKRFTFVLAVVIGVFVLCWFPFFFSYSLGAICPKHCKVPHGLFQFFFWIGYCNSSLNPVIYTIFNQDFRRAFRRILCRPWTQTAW

[21] = molecular target: Nuclear receptor subfamily 4immunitygroup A member 1 (Homo sapiens) (UniProt P22736); experiment: Selectivity interaction (Reporter gene assay) EUB0000182b NR4A1; set-up: recommended concentration 1 uM
[22] = molecular target: Steroidogenic factor 1 (Homo sapiens) (UniProt Q13285); experiment: Selectivity interaction (Reporter gene assay) EUB0000182b NR5A1; set-up: recommended concentration 1 uM
[23] = molecular target: T2, Nuclear receptor subfamily 2 group C member 1 (Homo sapiens); experiment: Selectivity interaction (Reporter gene assay) EUB0000182b NR2C1; set-up: recommended concentration 1 uM
[24] = molecular target: Nuclear receptor subfamily 2 group E member 1 (Homo sapiens) (UniProt Q9Y466); experiment: Selectivity interaction (Reporter gene assay) EUB0000182b NR2E1; set-up: recommended concentration 1 uM
[25] = molecular target: T1, Retinoic acid receptor RXR-alpha (Homo sapiens); experiment: Selectivity interaction (Reporter gene assay) EUB0000182b RXRA; set-up: recommended concentration 1 uM; conditions: reference bexarotene 1 uM, Selectivity number of off-targets 0.0, Selectivity number of targets 1.0, Source Knowledge inhouse
[26] = molecular target: T3, Hepatocyte nuclear factor 4-alpha (Homo sapiens); experiment: Selectivity interaction (Reporter gene assay) EUB0000182b HNF4A; set-up: recommended concentration 1 uM
[27] = molecular target: T4, Alpha trans-inducing protein (Human alphaherpesvirus 1); experiment: Selectivity interaction (Reporter gene assay) EUB0000182b UL48; set-up: recommended concentration 1 uM

Steroidogenic factor 1 (Homo sapiens), sequence (Q13285 whole entry): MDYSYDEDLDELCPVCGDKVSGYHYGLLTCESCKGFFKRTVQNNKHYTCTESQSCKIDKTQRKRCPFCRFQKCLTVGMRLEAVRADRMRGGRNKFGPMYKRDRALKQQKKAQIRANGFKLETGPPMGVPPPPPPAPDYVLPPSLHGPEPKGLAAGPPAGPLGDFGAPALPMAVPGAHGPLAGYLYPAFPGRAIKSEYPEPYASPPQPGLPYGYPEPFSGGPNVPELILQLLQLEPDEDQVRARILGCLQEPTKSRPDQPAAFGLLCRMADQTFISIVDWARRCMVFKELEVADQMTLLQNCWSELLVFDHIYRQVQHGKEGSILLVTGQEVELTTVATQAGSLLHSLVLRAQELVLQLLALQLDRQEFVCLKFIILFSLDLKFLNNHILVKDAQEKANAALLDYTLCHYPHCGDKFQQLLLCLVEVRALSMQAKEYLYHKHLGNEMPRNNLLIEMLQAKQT

Structure (SMILES): CN(CCOc1ccc(CC2SC(=O)NC2=O)cc1)c1ccccn1 (stereo not drawn)
- Fold activation [1]: 1.08
- Fold activation [2]: 1.05
- Relative activation [3]: 1.04%
- Fold activation [4]: 1.17
- Fold activation [5]: 1.09
- Remaining activity [6]: 0.964
- P-value [7]: 2.07e-12

Structure (SMILES): O=S(=O)(c1ccccc1)N(CC(F)(F)F)c1ccc(C(O)(C(F)(F)F)C(F)(F)F)cc1
- Remaining activity [8]: 0.742
- P-value [9]: 0.000575
- Remaining activity [10]: 0.903

Structure (SMILES): CCCc1c(OCCCOc2ccc(OCC(=O)O)cc2)ccc(C(C)=O)c1O
- Fold activation [11]: 1.34
- Relative activation [12]: 1.18%
- Fold activation [13]: 1.22
- Remaining activity [14]: 0.985
- P-value [15]: 1.09e-07
- Fold activation [16]: 1.36
- Fold activation [17]: 1.1

Further lines, results first:

- Inhibition of control [18]: > 50%
- Inhibition of control [19]: > 50%
- Inhibition of control (Mu-type opioid receptor): > 50%
- Inhibition of control [20]: > 50%
Structure (SMILES): COc1cc(OC)cc(-c2noc(N3CCN(C)C4(CCN(c5ccnc(C)c5)CC4)C3)n2)c1

- Fold activation [21]: 1.14
- Fold activation [22]: 1.09
- Fold activation [23]: 1.38
- Fold activation [24]: 1.24
- Relative activation [25]: 0.492%
- Fold activation [26]: 1.05
- P-value [27]: 2.38e-08
Structure (SMILES): COC(=O)/C=C/c1cccc(N(Cc2ccc(-c3ccc(N(C)C)cc3)cc2)C(=O)C2CCCCC2)c1
